Earlier results as cited in PubChem BioAssay AID1259409 (Chemical Carcinogenesis Research Information System (CCRIS), 2018).

System: rodent chemically induced tumor inhibition, incidence and multiplicity
Assay: CCRIS tumor inhibitor studies
Conditions: Route [Inhibitor]: ORAL, Species: RAT, Strain/Sex: F344/MALE, Promoter: NONE USED

SMILES: O
- tumour outcome (control, treated, inhibition, significance) (Carcinogen: 1,2-DIMETHYLHYDRAZINE, 540-73-8, Dose [Inhibitor]: 0, 250 PPM IN DIET BEGINNING POST CARCINOGEN TREATMENT AND CONTINUING FOR DURATION OF STUDY (STUDY DURATION: 365 D), Target Tissue: Type of Lesion: LARGE INTESTINE: ADENOMA OR ADENOCARCINOMA, Dose [Carcinogen]: 20 MG/KG BW 10 TIMES): 14/30 (47%), 11/32 (34%), 28%, not significant
- tumour outcome (control, treated, inhibition, significance) (Carcinogen: 1,2-DIMETHYLHYDRAZINE, 540-73-8, Dose [Inhibitor]: 0, 250 PPM IN DIET BEGINNING POST CARCINOGEN TREATMENT AND CONTINUING FOR DURATION OF STUDY (STUDY DURATION: 365 D), Target Tissue: Type of Lesion: SMALL INTESTINE: ADENOCARCINOMA, Dose [Carcinogen]: 20 MG/KG BW 10 TIMES): 6/30 (20%), 5/32 (16%), 20%, not significant
- tumour outcome (control, treated, inhibition, significance) (Carcinogen: 1,2-DIMETHYLHYDRAZINE, 540-73-8, Dose [Inhibitor]: 0, 500 PPM IN DIET BEGINNING POST CARCINOGEN TREATMENT AND CONTINUING FOR DURATION OF STUDY (STUDY DURATION: 365 D), Target Tissue: Type of Lesion: LARGE INTESTINE: ADENOMA OR ADENOCARCINOMA, Dose [Carcinogen]: 20 MG/KG BW 10 TIMES): 14/30 (47%), 16/32 (50%), -6%, not significant
- tumour outcome (control, treated, inhibition, significance) (Carcinogen: 1,2-DIMETHYLHYDRAZINE, 540-73-8, Dose [Inhibitor]: 0, 500 PPM IN DIET BEGINNING POST CARCINOGEN TREATMENT AND CONTINUING FOR DURATION OF STUDY (STUDY DURATION: 365 D), Target Tissue: Type of Lesion: SMALL INTESTINE: ADENOMA, Dose [Carcinogen]: 20 MG/KG BW 10 TIMES): 6/30 (20%), 3/32 (9%), 55%, not significant
- tumour outcome (control, treated, inhibition, significance) (Carcinogen: 1,2-DIMETHYLHYDRAZINE, 540-73-8, Dose [Inhibitor]: 0, 1000 PPM IN DIET BEGINNING POST CARCINOGEN TREATMENT AND CONTINUING FOR DURATION OF STUDY (STUDY DURATION: 365 D), Target Tissue: Type of Lesion: LARGE INTESTINE: ADENOMA OR ADENOCARCINOMA, Dose [Carcinogen]: 20 MG/KG BW 10 TIMES): 14/30 (47%), 11/32 (34%), 28%, not significant
- tumour outcome (control, treated, inhibition, significance) (Carcinogen: 1,2-DIMETHYLHYDRAZINE, 540-73-8, Dose [Inhibitor]: 0, 1000 PPM IN DIET BEGINNING POST CARCINOGEN TREATMENT AND CONTINUING FOR DURATION OF STUDY (STUDY DURATION: 365 D), Target Tissue: Type of Lesion: SMALL INTESTINE: ADENOCARCINOMA, Dose [Carcinogen]: 20 MG/KG BW 10 TIMES): 6/30 (20%), 6/32 (19%), 5%, not significant
- tumour outcome (control, treated, inhibition, significance) (Carcinogen: 1,2-DIMETHYLHYDRAZINE, 540-73-8, Dose [Inhibitor]: 0, 2000 PPM IN DIET BEGINNING POST CARCINOGEN TREATMENT AND CONTINUING FOR DURATION OF STUDY (STUDY DURATION: 365 D), Target Tissue: Type of Lesion: LARGE INTESTINE: ADENOCARCINOMA, Dose [Carcinogen]: 20 MG/KG BW 10 TIMES): 11/30 (37%), 11/31 (35%), 5%, not significant
- tumour outcome (control, treated, inhibition, significance) (Carcinogen: 1,2-DIMETHYLHYDRAZINE, 540-73-8, Dose [Inhibitor]: 0, 2000 PPM IN DIET BEGINNING POST CARCINOGEN TREATMENT AND CONTINUING FOR DURATION OF STUDY (STUDY DURATION: 365 D), Target Tissue: Type of Lesion: SMALL INTESTINE: ADENOCARCINOMA, Dose [Carcinogen]: 20 MG/KG BW 10 TIMES): 6/30 (20%), 10/31 (32%), -60%, not significant
- tumour outcome (control, treated, inhibition, significance) (Carcinogen: METHYLAZOXYMETHANOL ACETATE, 592-62-1, Dose [Inhibitor]: 0, 500 PPM IN DIET BEGINNING 2 WK POST CARCINOGEN TREATMENT AND CONTINUING FOR DURATION OF STUDY (STUDY DURATION: 255 D), Target Tissue: Type of Lesion: LARGE INTESTINE: ADENOMA OR ADENOCARCINOMA, Dose [Carcinogen]: 25 MG/KG BW 1/WK FOR 3 WK): 17/32 (53%), 3/30 (10%), 81%, p<0.0002
- tumour outcome (control, treated, inhibition, significance) (Carcinogen: METHYLAZOXYMETHANOL ACETATE, 592-62-1, Dose [Inhibitor]: 0, 500 PPM IN DIET BEGINNING 2 WK POST CARCINOGEN TREATMENT AND CONTINUING FOR DURATION OF STUDY (STUDY DURATION: 255 D), Target Tissue: Type of Lesion: SMALL INTESTINE: ADENOCARCINOMA, Dose [Carcinogen]: 25 MG/KG BW 1/WK FOR 3 WK): 2/32 (6%), 2/30 (7%), -17%, not significant
- tumour outcome (control, treated, inhibition, significance) (Carcinogen: METHYLAZOXYMETHANOL ACETATE, 592-62-1, Dose [Inhibitor]: 0, 1000 PPM IN DIET BEGINNING 2 WK POST CARCINOGEN TREATMENT AND CONTINUING FOR DURATION OF STUDY (STUDY DURATION: 255 D, Target Tissue: Type of Lesion: LARGE INTESTINE: ADENOMA OR ADENOCARCINOMA, Dose [Carcinogen]: 25 MG/KG BW 1/WK FOR 3 WK): 17/32 (53%), 9/30 (30%), 43%, not significant
- tumour outcome (control, treated, inhibition, significance) (Carcinogen: METHYLAZOXYMETHANOL ACETATE, 592-62-1, Dose [Inhibitor]: 0, 1000 PPM IN DIET BEGINNING 2 WK POST CARCINOGEN TREATMENT AND CONTINUING FOR DURATION OF STUDY (STUDY DURATION: 255 D, Target Tissue: Type of Lesion: SMALL INTESTINE: ADENOCARCINOMA, Dose [Carcinogen]: 25 MG/KG BW 1/WK FOR 3 WK): 2/32 (6%), 2/30 (7%), -17%, not significant
- tumour outcome (control, treated, inhibition, significance) (Carcinogen: METHYLAZOXYMETHANOL ACETATE, 592-62-1, Dose [Inhibitor]: 500 PPM IN DIET BEGINNING 2 WK POST LAST CARCINOGEN DOSE AND CONTINUING FOR 227 D (STUDY DURATION: 255 D), Target Tissue: Type of Lesion: LARGE INTESTINE: ADENOMA OR ADENOCARCINOMA, Dose [Carcinogen]: 25 MG/KG 1/WK FOR 3 WK): 17/32 (53%), 3/30 (10%), 81%, p<0.0002
- tumour outcome (control, treated, inhibition, significance) (Carcinogen: METHYLAZOXYMETHANOL ACETATE, 592-62-1, Dose [Inhibitor]: 1000 PPM IN DIET BEGINNING 2 WK POST LAST CARCINOGEN DOSE AND CONTINUING FOR 227 D (STUDY DURATION: 255 D), Target Tissue: Type of Lesion: LARGE INTESTINE: ADENOMA OR ADENOCARCINOMA, Dose [Carcinogen]: 25 MG/KG 1/WK FOR 3 WK): 17/32 (53%), 9/30 (30%), 43%, not calculated
